Values after ≈ are worked out from the molar mass of the structure shown.
conditions: buffer; pH 7.4; 200.0 µM

SMILES	solubility kinetic
CC(=O)NC(c1ccc(C)cc1)c1cc(Cl)c2cccnc2c1O (stereo not given)	< 0.4 µg/mL
O=C(O)/C=C/c1ccc2noc(-c3ccccc3)c2c1	3.7 µg/mL (≈ 13.9 µM)
O=C(COC(=O)CNC(=O)C1CCCCC1)NCc1ccccc1	> 49.9 µg/mL
NS(=O)(=O)c1cccc(NS(=O)(=O)c2cccc(C(F)(F)F)c2)c1	> 57.1 µg/mL
CCOc1ccc(/C=C2\SC(N3CCCCC3)=NC2=O)cc1	1.6 µg/mL (≈ 5.06 µM)
O=C(Nc1ccccc1F)c1ccc(-c2cccc([N+](=O)[O-])c2)o1	2 µg/mL (≈ 6.13 µM)
CN(C)S(=O)(=O)c1ccc(Cl)c(C(=O)NC2=NCCS2)c1	> 52.2 µg/mL
CC(C)=C(NC(=O)c1ccccc1)C(N)=O	> 32.7 µg/mL
Clc1ccc(-c2nc(NCCCN3CCOCC3)c3ccccc3n2)cc1	1.4 µg/mL (≈ 3.66 µM)
CCN(CC)C(=O)CSc1nc(-c2ccccc2)cc(=O)[nH]1	> 47.6 µg/mL
C/C(=N\O)C(C)(C)Nc1cccc(Br)c1	37 µg/mL (≈ 136 µM)
C#Cc1cccc(NC(=O)C2CCN(C(C)=O)CC2)c1	> 40.5 µg/mL
COC(=O)c1sccc1NS(=O)(=O)c1ccccc1	40.5 µg/mL (≈ 136 µM)
Cc1ccc(NC(=O)CNC(=O)Cc2cccc3ccccc23)nc1	11.6 µg/mL (≈ 34.8 µM)
CCOC(=O)c1ccc(NCCOC)c([N+](=O)[O-])c1	33.2 µg/mL (≈ 124 µM)
O=C(NCCc1ccc(O)c(O)c1)C1COc2ccccc2O1 (stereo not given)	> 47.3 µg/mL
Cn1nccc1NS(=O)(=O)c1ccc(NC(=O)C(F)(F)F)cc1	> 52.2 µg/mL
COCC(=O)OCC(=O)Nc1ccccc1-c1ccccc1	> 44.9 µg/mL
CCCSC1=C(C#N)C(c2cccs2)CC(=O)N1 (stereo not given)	33.7 µg/mL (≈ 121 µM)
CN(C)CCSc1nc2cc(S(=O)(=O)N3CCCCC3)ccc2o1	41.7 µg/mL (≈ 113 µM)

SMILES	solubility kinetic
O=C(Nc1ccc2nc(N3CCOCC3)sc2c1)c1ccccc1	7.2 µg/mL (≈ 21.2 µM)
Cc1ccc2oc(C(=O)N3CCCCCC3)c(C)c2c1	16.6 µg/mL (≈ 61.2 µM)
CCOc1ccc(S(=O)(=O)NCCCn2ccnc2)cc1	45.4 µg/mL (≈ 147 µM)
CC(=O)c1c(C)nc(Nc2nc3ccccc3s2)nc1C	0.2 µg/mL (≈ 0.67 µM)
Cc1ccc(NC(=O)CCC(=O)c2cccs2)c(Br)c1	8.6 µg/mL (≈ 24.4 µM)
COc1ccc(CNc2ncccc2[N+](=O)[O-])cc1	17 µg/mL (≈ 65.6 µM)
O=C(NCc1cccnc1)Nc1ccc(Cl)cc1	> 39.3 µg/mL
CCNC(=S)Nc1ccc(N2CCCCC2)cc1	> 39.5 µg/mL
O=C(NC(=S)NCc1ccccc1)c1cccs1	1.4 µg/mL (≈ 5.07 µM)
COc1ccc(OC)c(NC(=O)CCNC(=O)c2ccco2)c1	44.7 µg/mL (≈ 140 µM)
O=C(CCn1c(=O)sc2ccccc21)NC1CCCCC1	27.4 µg/mL (≈ 90 µM)
CCCCCc1ccc(CC(=O)N2CCOCC2)cc1	38.6 µg/mL (≈ 140 µM)
COS(=O)(=O)[O-].Cn1c(Cc2ccccc2)[n+](C)c2ccccc21	50.7 µg/mL
Cn1ncc([N+](=O)[O-])c1C(=O)Nc1ccccc1C(=O)O	> 43.5 µg/mL
O=C(NCc1ccccn1)Nc1cc(Cl)ccc1Cl	11.9 µg/mL (≈ 40.2 µM)
C[C@H](NCc1c[nH]c2ccccc12)c1ccccc1	> 37.6 µg/mL
CC1CC(OCC(O)CN2CCCCC2C)CC(C)(C)C1.Cl (stereo not given)	> 50.1 µg/mL
O=C(COC(=O)CNC(=O)C1CCCCC1)Nc1ccccc1	> 47.8 µg/mL
Cc1ccc(C(=O)Nc2ccc3ncccc3c2)cc1	6.9 µg/mL (≈ 26.3 µM)
COc1ccc(NC(=O)CN(C)CC(=O)N2CC(=O)Nc3ccccc32)cc1	> 57.4 µg/mL

SMILES	solubility kinetic
CC(Sc1nc2sccc2c(=O)n1-c1ccccc1)C(N)=O (stereo not given)	43.5 µg/mL (≈ 131 µM)
Fc1cccc(CN2CCN(c3ccc(Cl)cc3)CC2)c1	4.1 µg/mL (≈ 13.5 µM)
Cc1c(C)c(C)c2[nH]c(=S)[nH]c2c1C	0.4 µg/mL (≈ 1.94 µM)
O=C(O)CNC(=O)C(c1ccccc1)c1ccccc1	> 40.4 µg/mL
COc1ccccc1CNc1ccc(N2CCCCC2)cc1	30 µg/mL (≈ 101 µM)
Oc1cccc(/C=N/NC(=S)Nc2cccnc2)c1O	> 43.2 µg/mL
S=C1SCN(CC2CC2)CN1CC1CC1	> 36.4 µg/mL
CCN(CC)S(=O)(=O)c1cccc(NC2=NCCCCC2)c1	46.8 µg/mL (≈ 145 µM)
O=C(COC(=O)c1ccccc1)Nc1ccc2[nH]c(=O)[nH]c2c1	7.2 µg/mL (≈ 23.1 µM)
N=C1SCC(=O)N1c1ncc(Cc2ccccc2Cl)s1	2.2 µg/mL (≈ 6.79 µM)
CC(C)n1cnc2cc(NC(=O)c3ccco3)ccc21	> 40.4 µg/mL
Cc1cccc(NC(=O)CCS(=O)(=O)c2ccccc2)c1	> 45.5 µg/mL
Nc1ccc2nc3c(c(Cl)c2c1)CCCC3	25.1 µg/mL (≈ 108 µM)
O=c1c2ccccc2ncn1CCCCOc1ccccc1F	37.3 µg/mL (≈ 119 µM)
CN1C(=S)SC(C)(C)C1N(O)C(=O)Nc1ccc(Cl)cc1 (stereo not given)	4.2 µg/mL (≈ 12.1 µM)
O=C(O)C(Cc1ccccc1)N=C(NS(=O)(=O)c1ccccc1)c1ccccc1 (stereo not given)	> 61.3 µg/mL
O=C(N/C(=C\c1ccccc1)C(=O)N1CCCCC1)c1ccc(Br)o1	> 60.5 µg/mL
OC(C#CCN1CCCCCC1)(c1ccccc1)c1cccnc1 (stereo not given)	> 48.1 µg/mL
CCOc1ccc(C(=O)O/N=C(\N)c2ccccn2)cc1	5.2 µg/mL (≈ 18.2 µM)
N#C/C(=C/c1ccc(F)cc1)S(=O)(=O)c1ccccc1	37.5 µg/mL (≈ 131 µM)
